Assay results from patent publication US20160376659A1, “Breast Cancer Biomarker” (The University of Manchester, priority 2015, published 2016).

Experiments:
[1] = system: Notch target genes HEY1 and HES1; assay: HEY1 and HES1 expression in ER+ cell lines (real-time PCR, Western Blot); assay type: cell-based, human; conditions: for expression of HEY1 and HES1: MCF-7, T47D, ZR-75-1, 6 days, in the ALDH+ subpopulation
Description: MCF7, T47D and ZR-75-1 cell lines were purchased from American Tissue Culture Collection (ATCC) and cultured in DMEM/F-12, GlutaMAX (Gibco) with 10% FBS (Gibco). Cells were treated for 3 days or 6 days with ethanol (control), 10^-6M 4-OH-tamoxifen or 10^−7M fulvestrant and/or with 10 μM of gamma-secretase inhibitor RO4929097 (Cellagen Technology) or DMSO (control).
Total RNA was extracted using the RNeasy Plus Mini Kit (QIAGEN, 74104) and the concentration and purity determined using an ND-1000 spectrophotometer (NanoDrop Technologies). Reverse transcription of 1 μg of RNA was performed with Oligo(dT) using the TaqMan Reverse Transcription Reagents from Applied Biosystems (N8080234). Samples were incubated on a thermal cycler (MJ Research) for 10 minutes at 25° C., 30 minutes at 48° C. and 5 minutes at 95° C. Quantitative real-time PCR reactions were set up in triplicate in 384-well plates and performed on the 7900 PCR machine (Applied Biosystems) using TaqMan® Universal PCR Master Mix (Applied Biosystems) and probes from Universal Probe Library (Roche). Conditions used for amplification of cDNA fragments were as follows: 95° C. for 5 min, 40 cycles of amplification-95 C for 15 sec, 60 C for 1 min. The expression levels were calculated using the ΔΔCt method and normalised to the housekeeping genes 36B4 and GAPDH. The sequences of the primers and probes used can be found in the table below.
Proteins were extracted with Protein Lysis Buffer (25 mM HEPES, 50 mM NaCl, 30 mM NaPP, 50 mM NaF, 1% Triton-X-100, 10% Glycerol, 5 mM EDTA, Protease Inhibitor cocktail, 1 μM PMSF). Lysates were placed on a rotator for 1 hour at 4° C., then were centrifuged at 10000 g at 4° C. for 10 min, and supernatants were collected. Protein concentrations were assessed using the BCA Protein Assay Kit (Thermo Scientific, 23225). Proteins were separated on a 10% gel (Biorad, 456-1033) by SDS-PAGE at 200V for 1 hour, and then were transferred on polyvinylidene difluoride (PVDF) membranes (BioRad, 170-4157) at 25 V/1,300 mA for 15 min using a Trans Blot Turbo (BioRad, 170-4155). […]

MCF-7 cells = assay: In vivo tumor initiation of pre-treated MCF-7 cells (limiting dilution, ELDA); parameters: species or system mice; conditions: for in vivo tumor initiation capacity: 6 days in vitro pre-treatment, 100,000 MCF-7 cells, Nude mice, day 90; for enrichment in tumor-initiating cell frequency (ELDA): MCF-7 pre-treated six days, limiting dilution in NSG mice, day 60
Description: To determine tumor initiation capacity of MCF-7 cells or metastatic (BB3RC31) PDX cells treated in vitro or in vivo, respectively, Nude or NSG mice were injected subcutaneously with cells in mammosphere media mixed 1:1 with Matrigel. 8 μg/ml of 17-beta estradiol was administered in drinking water or 90-day slow release estrogen pellets were implanted sub-cutaneously into mice two days before cell injection (0.72 mg, Innovative Research of America). […] Positive tumor growth was assessed at day 60 or 90 after cell injection by determining the mice bearing a tumor greater than 100 mm^3 and is represented as mice positive for growth/mice tested (n=4 per condition in all experiments). p values were calculated with Chi-squared test.

[2] = system: ER+ metastatic BC patient-derived samples; assay: ALDEFLUOR assay (ALDH enzymatic activity) in metastatic patient-derived cells; assay type: cell-based, human; conditions: Tamoxifen 10^−6 M or Fulvestrant 10^−7 M, 7-9 days; seven out of nine patient samples
Description: Metastatic samples (ascites or pleural effusions) were centrifuged at 1000 g for 10 minutes at 4° C. The cell pellets were diluted in PBS. Erythrocytes and leucocytes were removed using Lymphoprep (Axis-Shield) and CD45-negative magnetic sorting (Miltenyi Biotec), respectively. Cells were cultured in adherence for 7-9 days in DMEM/F-12 medium, GlutaMAX (Gibco) with 10% FBS (Gibco), 10 μg/ml insulin (Sigma), 10 μg/ml hydrocortisone (Sigma) and 5 ng/ml epidermal growth factor (EGF, Sigma), in 10^−6M 4-OH-tamoxifen (Sigma, H7904), 10^−7M fulvestrant (ICI 182780, TOCRIS, 1047) or ethanol (control).
Dissociated single cells were suspended in Aldefluor assay buffer containing an ALDH substrate, bodipyaminoacetaldehyde (BAAA) at […], and incubated for 45 min at 37° C. To distinguish between ALDH-positive and -negative cells, a fraction of cells was incubated under identical conditions in the presence of a 2-fold molar excess of the ALDH inhibitor, diethylaminobenzaldehyde (DEAB). Mouse cells were excluded from the FACS analysis with anti-mouse MHC Class I (H-2Kd) antibody conjugated with Pacific Blue (BioLegend, 116616). 7-aminoactinomycin D (7AAD, BD) was added for dead cell exclusion. Data were acquired on a LSR II (BD) flow cytometer and analysed using the BD FACSDiva™ software.

NOTCH4-ICD and JAG1 = NOTCH4-ICD and JAG1 Western Blot in PDX treated in vivo; parameters: species or system mice; conditions: 14 day window treatment of PDXs in vivo
Description: Tamoxifen citrate (Sigma, T9262, 10 mg/kg/day) and RO4929097 (Cellagen Technology, 3 mg/kg/day) were administered by oral gavage (0.1 ml/dose) on a five day from seven basis (weekends excluded) for fourteen days. Tamoxifen citrate and RO4929097 were prepared in 1% carboxymethylcellulose (Sigma, C9481) dissolved in distilled water. Fulvestrant (kindly provided by Astrazeneca, 200 mg/kg/week) was administered by subcutaneous injection (0.1 ml/dose) on a weekly basis for fourteen days. The HBC×22 and HBC×34 tamoxifen-resistant PDXs have been established by our collaborators in the Curie Institute (Cottu el al, 2014) and were treated for fourteen days in the presence or absence of the gamma-secretase inhibitor RO4929097 (10 mg/kg/day, oral gavage). Xenografts were collected in ice cold DMEM media for live cell assays, histological analysis and RNA and protein extraction. Patient-derived xenograft single cell suspension was obtained using a collagenase-hyaluronidase mixture for digestion (Stem Cell Technologies).
Proteins were extracted with Protein Lysis Buffer (25 mM HEPES, 50 mM NaCl, 30 mM NaPP, 50 mM NaF, 1% Triton-X-100, 10% Glycerol, 5 mM EDTA, Protease Inhibitor cocktail, 1 μM PMSF). […] Protein concentrations were assessed using the BCA Protein Assay Kit (Thermo Scientific, 23225). […]

SMILES	HEY1 and HES1 mRNA and protein levels ([1]; MCF-7 cells pre-treated six days with RO4929097 10 μM)	enrichment in tumor-initiating cell frequency following tamoxifen or fulvestrant pre-treatment (MCF-7 cells; co-treatment with RO4929097 10 μM)	expression of HEY1 and HES1 [1]	ALDH enzymatic activity [2]	NOTCH4-ICD and JAG1 protein expression (NOTCH4-ICD and JAG1)	in vivo tumor initiation capacity (MCF-7 cells)	enrichment in tumor-initiating cell frequency (ELDA) (MCF-7 cells)
CC(C)(C(=O)NCC(F)(F)C(F)(F)F)C(=O)N[C@@H]1C(=O)Nc2ccccc2-c2ccccc21 [RO4929097]	decreased	reversed	–	–	–	–	–
C[C@]12CC[C@@H]3c4ccc(O)cc4C[C@@H](CCCCCCCCC[S+]([O-])CCCC(F)(F)C(F)(F)F)[C@H]3[C@@H]1CC[C@@H]2O (stereo partly drawn) [fulvestrant]	–	–	preferentially increased	significant increase	up-regulated	enriched	11 fold
CC/C(=C(\c1ccccc1)c1ccc(OCCN(C)C)cc1)c1ccccc1 [tamoxifen, (Z)-2-[4-(1,2-diphenylbut-1-enyl)phenoxy]-N,N-dimethylethanamine]	–	–	preferentially increased	significant increase	up-regulated	enriched	11 fold
